Experimental data reported in PMC8286840, “Identifying SARS-CoV-2 antiviral compounds by screening for small molecule inhibitors of Nsp3 papain-like protease” (Biochemical Journal, 2021).
Counter-ions that a name gives are not always drawn. Like-named read-outs stand apart in the source and are kept apart here.

Assays:
[1] = target: T1, SARS-CoV-2 PLpro (nsp3 1564–1878) (Severe acute respiratory syndrome coronavirus 2, UniProt P0DTD1); assay: biochemical; design: FRET-quenched peptide (Pro3) cleavage by PLpro, 10 min pre-incubation, slope over 20 min, normalised to no-compound control; conditions: low concentration screen, read-out: % of control remaining
[2] = target: T1, SARS-CoV-2 PLpro (nsp3 1564–1878); assay: biochemical; design: FRET-quenched peptide (Pro3) cleavage by PLpro, 10 min pre-incubation, slope over 20 min, normalised to no-compound control; conditions: high concentration screen, read-out: % of control remaining

CC1(C)S[C@@H]2[C@H](NC(=O)[C@H](N)c3ccc(O)cc3)C(=O)N2[C@H]1C(=O)O [Amoxicillin]
remaining activity at 1.25 µM ([1]; Well no.=2000): 98.8%
remaining activity at 1.25 µM ([1]; Well no.=7654): 97%
remaining activity at 3.75 µM ([2]; Well no.=2000): 100%
remaining activity at 3.75 µM ([2]; Well no.=7654): 97.6%

CCNC(=O)N1CCN(CCCC(c2ccc(F)cc2)c2ccc(F)cc2)CC1 [Amperozide hydrochloride]
remaining activity at 1.25 µM ([1]; Well no.=165): 92.6%
remaining activity at 3.75 µM ([2]; Well no.=165): 96.4%

C[C@@H]1[C@H](O)[C@@H](C)/C=C/C=C/C=C/C=C/C=C/C=C/C=C/[C@H](O[C@@H]2O[C@H](C)[C@@H](O)[C@H](N)[C@@H]2O)C[C@@H]2O[C@](O)(C[C@@H](O)C[C@@H](O)[C@H](O)CC[C@@H](O)C[C@@H](O)CC(=O)O[C@H]1C)C[C@H](O)[C@H]2C(=O)O [Amphotericin B]
remaining activity at 1.25 µM ([1]; Well no.=3470): 101%
remaining activity at 3.75 µM ([2]; Well no.=3470): 98.9%

CC1(C)S[C@@H]2[C@H](NC(=O)[C@H](N)c3ccccc3)C(=O)N2[C@H]1C(=O)O [Ampicillin (sodium)]
remaining activity at 1.25 µM ([1]; Well no.=8708): 101%
remaining activity at 3.75 µM ([2]; Well no.=8708): 101%

CC1(C)S[C@@H]2[C@H](NC(=O)[C@H](N)c3ccccc3)C(=O)N2[C@H]1C(=O)O [Ampicillin]
remaining activity at 1.25 µM ([1]; Well no.=2123): 97.8%
remaining activity at 3.75 µM ([2]; Well no.=2123): 97.3%

CCOC(=O)OC(C)OC1=C(C(=O)Nc2ccccn2)N(C)S(=O)(=O)c2ccccc21 (stereo not drawn) [Ampiroxicam]
remaining activity at 1.25 µM ([1]; Well no.=2125): 101%
remaining activity at 3.75 µM ([2]; Well no.=2125): 103%

CC(C)CN(C[C@@H](O)[C@H](Cc1ccccc1)NC(=O)O[C@H]1CCOC1)S(=O)(=O)c1ccc(N)cc1 [Amprenavir]
remaining activity at 1.25 µM ([1]; Well no.=2242): 101%
remaining activity at 1.25 µM ([1]; Well no.=8648): 94.1%
remaining activity at 3.75 µM ([2]; Well no.=2242): 102%
remaining activity at 3.75 µM ([2]; Well no.=8648): 95.7%

CCCc1ncc(C[n+]2ccccc2C)c(N)n1 [Amprolium HCl]
remaining activity at 1.25 µM ([1]; Well no.=8588): 106%
remaining activity at 3.75 µM ([2]; Well no.=8588): 108%

COc1cc(NS(C)(=O)=O)ccc1Nc1c2ccccc2nc2ccccc12 [Amsacrine hydrochloride]
remaining activity at 1.25 µM ([1]; Well no.=346): 97.8%
remaining activity at 3.75 µM ([2]; Well no.=346): 103%

N#C[C@H](O[C@@H]1O[C@H](CO[C@@H]2O[C@H](CO)[C@@H](O)[C@H](O)[C@H]2O)[C@@H](O)[C@H](O)[C@H]1O)c1ccccc1 [Amygdalin]
remaining activity at 1.25 µM ([1]; Well no.=3472): 100%
remaining activity at 3.75 µM ([2]; Well no.=3472): 102%

COc1cc(F)c(C(C)C)cc1-c1ccc(C(F)(F)F)cc1CN1C(=O)O[C@H](c2cc(C(F)(F)F)cc(C(F)(F)F)c2)[C@@H]1C [Anacetrapib (MK-0859)]
remaining activity at 1.25 µM ([1]; Well no.=5312): 94.2%
remaining activity at 3.75 µM ([2]; Well no.=5312): 93.1%

O=C1CN2Cc3c(ccc(Cl)c3Cl)N=C2N1 [Anagrelide HCl]
remaining activity at 1.25 µM ([1]; Well no.=5022): 93.8%
remaining activity at 3.75 µM ([2]; Well no.=5022): 99%

O=C1CN2Cc3c(ccc(Cl)c3Cl)N=C2N1 [Anagrelide]
remaining activity at 1.25 µM ([1]; Well no.=1629): 95.8%
remaining activity at 3.75 µM ([2]; Well no.=1629): 97.6%

CN(C)N(C)C(=O)[C@@]1(Cc2ccccc2)CCCN(C(=O)[C@@H](Cc2c[nH]c3ccccc23)NC(=O)C(C)(C)N)C1 [Anamorelin (hydrochloride)]
remaining activity at 1.25 µM ([1]; Well no.=7291): 98.3%
remaining activity at 3.75 µM ([2]; Well no.=7291): 97.8%

CN(C)N(C)C(=O)[C@@]1(Cc2ccccc2)CCCN(C(=O)[C@@H](Cc2c[nH]c3ccccc23)NC(=O)C(C)(C)N)C1 [Anamorelin]
remaining activity at 1.25 µM ([1]; Well no.=8437): 97.3%
remaining activity at 3.75 µM ([2]; Well no.=8437): 96.9%

CCCCC/C=C\C/C=C\C/C=C\C/C=C\CCCC(=O)NCCO [Anandamide (20:4, n-6)]
remaining activity at 1.25 µM ([1]; Well no.=4290): 99.3%
remaining activity at 3.75 µM ([2]; Well no.=4290): 93%

CC(C)(C#N)c1cc(Cn2cncn2)cc(C(C)(C)C#N)c1 [Anastrozole]
remaining activity at 1.25 µM ([1]; Well no.=1858): 101%
remaining activity at 3.75 µM ([2]; Well no.=1858): 102%

N=c1ccn2c(n1)O[C@H]1[C@H](O)[C@@H](CO)O[C@H]12 [Ancitabine hydrochloride]
remaining activity at 1.25 µM ([1]; Well no.=294): 98.8%
remaining activity at 3.75 µM ([2]; Well no.=294): 93.7%

CC(=O)Nc1ccc(OC[C@](C)(O)C(=O)Nc2ccc([N+](=O)[O-])c(C(F)(F)F)c2)cc1 [Andarine (GTX-007)]
remaining activity at 1.25 µM ([1]; Well no.=5053): 102%
remaining activity at 3.75 µM ([2]; Well no.=5053): 104%

C=C1CC[C@@H]2[C@](C)(CO)[C@H](O)CC[C@@]2(C)[C@@H]1C/C=C1/C(=O)OC[C@H]1O [Andrographolide]
remaining activity at 1.25 µM ([1]; Well no.=3435): 93.4%
remaining activity at 3.75 µM ([2]; Well no.=3435): 96.9%

C[C@]12CC[C@@H](O)C[C@@H]1CC[C@@H]1[C@@H]2CC[C@]2(C)C(=O)CC[C@@H]12 [Androsterone]
remaining activity at 1.25 µM ([1]; Well no.=298): 98.5%
remaining activity at 1.25 µM ([1]; Well no.=6435): 99.9%
remaining activity at 3.75 µM ([2]; Well no.=298): 99.3%
remaining activity at 3.75 µM ([2]; Well no.=6435): 97.6%

COc1ccc(-c2cc(=S)ss2)cc1 [Anethole trithione]
remaining activity at 1.25 µM ([1]; Well no.=4132): 93.9%
remaining activity at 3.75 µM ([2]; Well no.=4132): 96.6%

C/C=C/c1ccc(OC)cc1 [Anethole, trans-]
remaining activity at 1.25 µM ([1]; Well no.=1916): 97.9%
remaining activity at 3.75 µM ([2]; Well no.=1916): 95.1%

COc1ccc(-c2cc(=S)ss2)cc1 [Anethole-trithione]
remaining activity at 1.25 µM ([1]; Well no.=1856): 91.9%
remaining activity at 3.75 µM ([2]; Well no.=1856): 92.4%

CC[C@H](C)[C@H](NC(=O)[C@H](Cc1ccc(O)cc1)NC(=O)[C@@H](NC(=O)[C@H](CCCNC(=N)N)NC(=O)[C@@H](N)CC(=O)O)C(C)C)C(=O)N[C@@H](Cc1c[nH]cn1)C(=O)N1CCC[C@H]1C(=O)O [Angiotensin (1-7)]
remaining activity at 1.25 µM ([1]; Well no.=6176): 96.1%
remaining activity at 1.25 µM ([1]; Well no.=8368): 99.7%
remaining activity at 3.75 µM ([2]; Well no.=6176): 96.5%
remaining activity at 3.75 µM ([2]; Well no.=8368): 96.1%

CC[C@H](C)[C@H](NC(=O)[C@H](Cc1ccc(O)cc1)NC(=O)[C@@H](NC(=O)[C@H](CCCNC(=N)N)NC(=O)[C@@H](N)CC(=O)O)C(C)C)C(=O)N[C@@H](Cc1cnc[nH]1)C(=O)N1CCC[C@H]1C(=O)N[C@@H](Cc1ccccc1)C(=O)O [Angiotensin II human]
remaining activity at 1.25 µM ([1]; Well no.=8345): 93.9%
remaining activity at 3.75 µM ([2]; Well no.=8345): 97.1%

COc1ccc(C(=O)N2CCCC2=O)cc1 [Aniracetam]
remaining activity at 1.25 µM ([1]; Well no.=156): 102%
remaining activity at 1.25 µM ([1]; Well no.=1889): 95.1%
remaining activity at 3.75 µM ([2]; Well no.=156): 108%
remaining activity at 3.75 µM ([2]; Well no.=1889): 95.2%

CN1[C@H]2C[C@H](OC(=O)[C@H](CO)c3ccccc3)C[C@@H]1[C@@H](O)C2 [Anisodamine]
remaining activity at 1.25 µM ([1]; Well no.=3474): 96.3%
remaining activity at 3.75 µM ([2]; Well no.=3474): 92.3%

Cn1cncc1C[C@H](NC(=O)CCN)C(=O)O [Anserine]
remaining activity at 1.25 µM ([1]; Well no.=6581): 102%
remaining activity at 1.25 µM ([1]; Well no.=7890): 91.9%
remaining activity at 3.75 µM ([2]; Well no.=6581): 103%
remaining activity at 3.75 µM ([2]; Well no.=7890): 95.1%

c1ccc(CN(CC2=NCCN2)c2ccccc2)cc1 [Antazoline (hydrochloride)]
remaining activity at 1.25 µM ([1]; Well no.=7425): 112%
remaining activity at 3.75 µM ([2]; Well no.=7425): 102%
